Laboratory results: US20110070232A1, “Combination Therapy with an Antitumor Alkaloid” (Pharma Mar, S.A., priority 2008, published 2011)
Where two headings read alike, the source gives them in different places.

Tested on: MRI-H-254 tumors
Assay type: in vivo, mice
Protocol: Female athymic nude mice (Harlan Sprague Dawley, Madison, Wis.) were utilized for all experiments. Animals were housed in ventilated rack caging with food and water ad libitum. The mice were acclimated for at least 5 days prior to tumor implantation with tumor fragments.
Treatments were initiated on DPI 20.
Tumor size measurements were recorded twice weekly from the treatment initiation until the termination of the study.
Mean, standard deviation and standard error of the mean were determined for tumor volume for all animal groups at all assessments. Student's t test was performed on tumor volumes at each measurement day, including at the end of the study, to determine whether there were any statistically significant differences between combination treatment groups and single monotherapy treatment groups.

[1] = PM00104 0.90 IV, docetaxel 16 IP, oxaliplatin 8 IP mg/kg/day (G2, G3, G5, G7, G9), DPI 20, 27, 34

COc1c(C)cc2c(c1O)[C@@H]1[C@@H]3Cc4c(OC(C)=O)c(C)c5c(c4[C@H](CNC(=O)/C=C/c4cccc(C(F)(F)F)c4)N3[C@@H](O)[C@H](C2)N1C)OCO5 [PM00104]
% T/C on day 20 [1]: 100.2%
% T/C on day 23 [1]: 109.3%
% T/C on day 27 [1]: 71.6%
% T/C on day 30 [1]: 65.4%
% T/C on day 33 [1]: 54.2%
% T/C on day 36 [1]: 50.0%
% T/C on day 40 [1]: 36.1%
% T/C on day 48 [1]: 26.9%
% Inhibition (day 20, PM00104 0.9 and docetaxel 8 mg/kg/day): −0.2%
% Inhibition (day 20, PM00104 0.9 and docetaxel 16 mg/kg/day): −0.2%
% Inhibition (day 20, PM00104 0.9 and oxaliplatin 4 mg/kg/day): −0.2%
% Inhibition (day 20, PM00104 0.9 and oxaliplatin 8 mg/kg/day): −0.2%
% Inhibition (day 23, PM00104 0.9 and docetaxel 8 mg/kg/day): −9.3%
% Inhibition (day 23, PM00104 0.9 and docetaxel 16 mg/kg/day): −9.3%
% Inhibition (day 23, PM00104 0.9 and oxaliplatin 4 mg/kg/day): −9.3%
% Inhibition (day 23, PM00104 0.9 and oxaliplatin 8 mg/kg/day): −9.3%
% Inhibition (day 27, PM00104 0.9 and docetaxel 8 mg/kg/day): 28.4%
% Inhibition (day 27, PM00104 0.9 and docetaxel 16 mg/kg/day): 28.4%
% Inhibition (day 27, PM00104 0.9 and oxaliplatin 4 mg/kg/day): 28.4%
% Inhibition (day 27, PM00104 0.9 and oxaliplatin 8 mg/kg/day): 28.4%
% Inhibition (day 30, PM00104 0.9 and docetaxel 8 mg/kg/day): 34.6%
% Inhibition (day 30, PM00104 0.9 and docetaxel 16 mg/kg/day): 34.6%
% Inhibition (day 30, PM00104 0.9 and oxaliplatin 4 mg/kg/day): 34.6%
% Inhibition (day 30, PM00104 0.9 and oxaliplatin 8 mg/kg/day): 34.6%
% Inhibition (day 33, PM00104 0.9 and docetaxel 8 mg/kg/day): 45.8%
% Inhibition (day 33, PM00104 0.9 and docetaxel 16 mg/kg/day): 45.8%
% Inhibition (day 33, PM00104 0.9 and oxaliplatin 4 mg/kg/day): 45.8%
% Inhibition (day 33, PM00104 0.9 and oxaliplatin 8 mg/kg/day): 45.8%
% Inhibition (day 36, PM00104 0.9 and docetaxel 8 mg/kg/day): 50.0%
% Inhibition (day 36, PM00104 0.9 and docetaxel 16 mg/kg/day): 50.0%
% Inhibition (day 36, PM00104 0.9 and oxaliplatin 4 mg/kg/day): 50.0%
% Inhibition (day 36, PM00104 0.9 and oxaliplatin 8 mg/kg/day): 50.0%
% Inhibition (day 40, PM00104 0.9 and docetaxel 8 mg/kg/day): 63.9%
% Inhibition (day 40, PM00104 0.9 and docetaxel 16 mg/kg/day): 63.9%
% Inhibition (day 40, PM00104 0.9 and oxaliplatin 4 mg/kg/day): 63.9%
% Inhibition (day 40, PM00104 0.9 and oxaliplatin 8 mg/kg/day): 63.9%
% Inhibition (day 48, PM00104 0.9 and docetaxel 8 mg/kg/day): 73.1%
% Inhibition (day 48, PM00104 0.9 and docetaxel 16 mg/kg/day): 73.1%
% Inhibition (day 48, PM00104 0.9 and oxaliplatin 4 mg/kg/day): 73.1%
% Inhibition (day 48, PM00104 0.9 and oxaliplatin 8 mg/kg/day): 73.1%
